This test has as its target T1, Bcl-2-like protein 10 [11-204] (Homo sapiens, UniProt Q9HD36).
T1 construct: 11-204
T1 sequence (Q9HD36 whole entry): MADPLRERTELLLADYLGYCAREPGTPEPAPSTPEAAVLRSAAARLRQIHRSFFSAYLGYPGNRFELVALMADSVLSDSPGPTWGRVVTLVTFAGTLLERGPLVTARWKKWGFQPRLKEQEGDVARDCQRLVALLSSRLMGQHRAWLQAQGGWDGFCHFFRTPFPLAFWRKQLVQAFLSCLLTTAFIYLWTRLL
The test can be described thus: inhibitors of Bim-Bcl-B binding, confirmation, biochemical, dose response, multiplexed HTS hits (AID 2077).

Where [1] appears, read: inactive by the depositor's call.

The values below come from BindingDB's records for doi:10.7270/Q2NG4P21 (Nmmlsc, 2009).

The term EC50 denotes the concentration needed to bring the measured effect to its halfway point. A lower EC50 goes with higher potency in that assay. Consider `CCN(CC)c1ccc(NC(=O)c2ccccc2Br)cc1S(=O)(=O)Nc1ccccc1OC`, for which the EC50 was found to be 8.66 µM.
`O=c1[nH]c(O)c(Cc2ccc(-c3cc(Cl)ccc3[N+](=O)[O-])o2)c(=O)[nH]1` yielded a concentration for a half-maximal effect (EC50) under setting [1] of 36.5 µM.
Regarding `O=C(NCc1ccccc1)c1ccc2nc(-c3ccco3)c(-c3ccco3)nc2c1` [2,3-bis(furan-2-yl)-N-(phenylmethyl)quinoxaline-6-carboxamide], the EC50 under setting [1] was 31.6 µM.
In turn, `Cc1cc(-c2cc(-c3ccc(Cl)cc3)nc(N)c2C#N)co1` [2-azanyl-6-(4-chlorophenyl)-4-(5-methylfuran-3-yl)pyridine-3-carbonitrile] showed an EC50 under setting [1] of 15.2 µM.
As to `COc1ccc(N2C(=O)C(Cl)=C(Oc3cccc(OC)c3)C2=O)cc1` [3-chloro-4-(3-methoxyphenoxy)-1-(4-methoxyphenyl)-1H-pyrrole-2,5-dione], the EC50 worked out at 0.61 µM.
The compound `O=C1C(=Cc2ccco2)NC(=S)N1c1ccccc1` [(5E)-5-(furan-2-ylmethylidene)-3-phenyl-2-sulfanylideneimidazolidin-4-one] came in with an EC50 of 2.9 µM.
On to `O=c1c2c(n3nnnc3n1Cc1ccccc1)-c1ccccc1CC21CCCC1` [MLS000030575], for which the EC50 came to 3.57 µM.
As to `O=C1NC(=O)C2(Cc3c(nc4ccccn4c3=O)N3CCCCCC32)C(=O)N1Cc1ccccc1` (centres undefined) [MLS000083668], the midpoint of the response, the EC50, lay at 6.4 µM.
Under setting [1], `Clc1nc(NCc2cccnc2)nc(N2CCOCC2)n1` [MLS000121154] came in with an EC50 of 13.5 µM.
`CC(=O)Nc1ccc(-n2cc(-c3ccccc3)[nH]c2=S)cc1` [MLS001001946]: a half-maximal effect (EC50) was put at 0.92 µM.
With `COc1ccccc1-n1c(-c2ccccc2)c[nH]c1=S` [MLS001007615], a half-maximal effect under setting [1] (EC50) was put at 24.4 µM.
As to `O=C(Nc1nnc(COc2ccc(Cl)cc2)s1)c1ccco1` [N-[5-[(4-chloranylphenoxy)methyl]-1,3,4-thiadiazol-2-yl]furan-2-carboxamide], the EC50 is 1.46 µM.
Same read-out and setting: for `S=c1[nH]cc(-c2ccccc2)n1-c1ccccc1` [SMR000196363] the value was 0.32 µM; for `Cc1ccc(C=NNC(=O)CSc2nnc(-c3ccc(Cl)cc3)n2-c2ccccc2)o1` [SMR000218122], 16.4 µM.
